We go through three compounds from US20210052582A1, “METHODS OF USE AND PHARMACEUTICAL COMPOSITIONS OF A SELECTIVE SYK INHIBITOR” (Portola Pharmaceuticals, Inc., priority 2018, published 2021).

Where a name gives a salt, the structure may show the parent alone.

Data set [1] in a line: Dissolution study of HCl salt and free base in formulation buffer. It is filed as physicochemical. Particulars: for solubility (visual appearance): 10 mg/mL (1%) in pH 6, 10 mM citrate buffer, 1% PEG400, 1% Glycerin, 0.3% NaCl, 0.05% PS80. The protocol: A dissolution study was performed in which the HCl salt or the free base were added to the following formulation buffer at a concentration of 10 mg/mL (1%): • pH 6, 10 mM citrate buffer, 1% PEG400, 1% Glycerin, 0.3% NaCl, 0.05% PS80.
The pH was increased for soluble samples to better understand their properties. The appearance of the samples was visually observed for clarity or cloudiness. […] The free base was not soluble.

Data set [2] in a line: Free base solubilization with solubilizers. It is filed as physicochemical. Particulars: aqueous solubilizer (excipient) mixture, aqueous with cosolvent or surfactant or cyclodextrin; combination of 3% Glycerin, 5% PEG 400, 5% PEG-35 castor oil, 15% polysorbate 60, 4% polysorbate 80, 2% PVP K29/32, 10% propylene glycol. From the text: The free base was not soluble with various solubilizers.

For data set [3], the system named is Mice sensitized with short ragweed allergen. Briefly: Murine model of allergic conjunctivitis (conjunctival allergen challenge, short ragweed). It is filed as in vivo, mouse. The procedure: Mice were sensitized with subcutaneously injected short ragweed allergen (day 1, day 11), and underwent conjunctival allergen challenge (CAC) on day 18 with short ragweed allergen. Following challenge, the mice were randomized into treatment groups (n=8) and given topical test compounds: vehicle, 0.1% Compound 1, 1% Compound 1, 1% prednisolone, or saline (BSS) twice a day for 2 days, and three times a day for an additional 4 days during allergen challenges. Challenges were conducted twice daily, on day 21 thru 24. Responses to allergen challenge were evaluated after challenges 1, 4, 6 and 8.

In data set [4] the test system is patients with acute or chronic allergic conjunctivitis. Put plainly: Clinical conjunctival allergen challenge (CAC) study. It is filed as in vivo, human. From the text:
In a study utilizing the clinical model of the conjunctival allergen challenge (CAC) qualifying patients with acute or chronic allergic conjunctivitis were randomized to receive one of the five interventions listed below, each was given six doses at 1 drop per dose. The CAC model is a standardized clinical methodology for evaluation of novel drugs for allergy and anti-inflammatory activity, accepted by the FDA for clinical development of novel therapeutics, and has been used for development of 19 drugs currently on the market. In the CAC model, doses of allergen are administered in a controlled fashion to patients eyes in the office setting to induce a controlled allergic reaction. Drug is administered at pre-specified timepoints and signs and symptoms are collected also at pre-specified timepoints to assess efficacy.
• Composition A: 0.5% w/w Compound 1 HCl salt, 1.5% w/w glycerin, 0.01% w/w BAC in 10 mM phosphate buffer, pH 6.0. • Composition B: 1.0% w/w Compound 1 HCl salt, 1.5% w/w glycerin, 0.01% w/w BAC in 10 mM phosphate buffer, pH 6.0. • Placebo: 0.01% w/w BAC, 1.5% w/w glycerol, pH 6.0. After receiving screening and baseline CACs, patients were assigned in a masked randomization fashion to receive a study treatment at 8 hour or 15 min pre-CAC at Visits 4b and 5, respectively. […]
• Ocular Itching [Time Frame: 5, 7, and 10 minutes post allergen administration (CAC)] Ocular Itching were assessed by the subjects using a 0-4 scale (0=none to 4=severe). Average of ocular itching score over both eyes were analyzed. • Conjunctival Redness [Time Frame: 7, 15, and 20 minutes post allergen administration CAC] • Conjunctival Redness were assessed by the investigator using a 0-4 scale (0=none to 4=severe). Average of conjunctival redness score over both eyes were analyzed. • Other variables assessed for efficacy include lid swelling, chemosis, tearing, nasal symptoms, and indication of biological activity via exploratory assessment of biomarkers, and exploratory imaging of inflammation with in vivo confocal microscopy. […]

`NC(=O)c1cnc(N[C@@H]2CCCC[C@@H]2N)nc1Nc1cccc(-c2ncccn2)c1` [Compound 1, 2-((1R,2S)-2-aminocyclohexylamino)-4-(3-(pyrimidin-2-yl)phenylamino)pyrimidine-5-carboxamide]: the “solubility (visual appearance)” value in data set [1] (listed as free base) was “not soluble”. Moreover, in data set [2], the solubility was 1000 to 10000 µg/mL. In data set [3] (1% Compound 1), the “test days with statistically significant reduction in overall mean hyperemia” value was 3 of 4. Further, the “test days with significantly reduced mean change in hyperemia compared to saline” value in data set [3] (Compound 1 (0.1%), topical) is 2 of 4. In addition, the “test days with significantly reduced mean change in hyperemia (pre-versus post-CAC) compared to saline” value in data set [3] (Compound 1 (1%), topical) is reported as 4 of 4. Moreover, the “ocular discharge, lid swelling, or squinting” value in data set [3] (mouse, in vivo) is “No significant changes”. For the same compound, the “relief of allergic conjunctivitis” value in data set [3] (murine model) is reported as “showed efficacy”. Moreover, the “treatment emergent adverse events” value in data set [4] (Compound 1 groups) is on record as “rated mild”. Also, the biological effect result in data set [4] (both concentrations (0.5%, 1%)) is “clear and consistent biological effect”. In data set [4] (human, in vivo), the “reduction of redness, 8 hours versus 15 minutes following dosing” value is “reduced redness to a greater extent at 8 hours following dosing compared with 15 minutes”.
Take `NC(=O)c1cnc(N[C@@H]2CCCC[C@@H]2N)nc1Nc1cccc(-c2ncccn2)c1` [HCl salt, 2-((1R,2S)-2-aminocyclohexylamino)-4-(3-(pyrimidin-2-yl)phenylamino)pyrimidine-5-carboxamide]: the “solubility (visual appearance)” value in data set [1] is listed as “soluble even at a pH of 6”. The “behaviour as pH was increased from 6” value in data set [1] (same formulation buffer, pH increased) is listed as “precipitates formed”.
In the case of `C[C@]12C=CC(=O)C=C1CC[C@@H]1[C@@H]2[C@@H](O)C[C@@]2(C)[C@H]1CC[C@]2(O)C(=O)CO` [prednisolone, reference compound], the “test days with significant decrease in the mean change in hyperemia” value in data set [3] (prednisolone (1.0%), topical, positive control) is recorded as 2 of 4.
